Laboratory results taken from patent publication US12157746B2, “Tetrahydro-1H-pyrazino[2,1-a]isoindolylquinoline compounds for the treatment of autoimmune disease” (F. HOFFMANN-LA ROCHE AG, priority 2018, dated 2024).

Biological target: T1, human TLR7 (Homo sapiens, UniProt Q9NYK1)
T1 sequence (Q9NYK1 27-1049): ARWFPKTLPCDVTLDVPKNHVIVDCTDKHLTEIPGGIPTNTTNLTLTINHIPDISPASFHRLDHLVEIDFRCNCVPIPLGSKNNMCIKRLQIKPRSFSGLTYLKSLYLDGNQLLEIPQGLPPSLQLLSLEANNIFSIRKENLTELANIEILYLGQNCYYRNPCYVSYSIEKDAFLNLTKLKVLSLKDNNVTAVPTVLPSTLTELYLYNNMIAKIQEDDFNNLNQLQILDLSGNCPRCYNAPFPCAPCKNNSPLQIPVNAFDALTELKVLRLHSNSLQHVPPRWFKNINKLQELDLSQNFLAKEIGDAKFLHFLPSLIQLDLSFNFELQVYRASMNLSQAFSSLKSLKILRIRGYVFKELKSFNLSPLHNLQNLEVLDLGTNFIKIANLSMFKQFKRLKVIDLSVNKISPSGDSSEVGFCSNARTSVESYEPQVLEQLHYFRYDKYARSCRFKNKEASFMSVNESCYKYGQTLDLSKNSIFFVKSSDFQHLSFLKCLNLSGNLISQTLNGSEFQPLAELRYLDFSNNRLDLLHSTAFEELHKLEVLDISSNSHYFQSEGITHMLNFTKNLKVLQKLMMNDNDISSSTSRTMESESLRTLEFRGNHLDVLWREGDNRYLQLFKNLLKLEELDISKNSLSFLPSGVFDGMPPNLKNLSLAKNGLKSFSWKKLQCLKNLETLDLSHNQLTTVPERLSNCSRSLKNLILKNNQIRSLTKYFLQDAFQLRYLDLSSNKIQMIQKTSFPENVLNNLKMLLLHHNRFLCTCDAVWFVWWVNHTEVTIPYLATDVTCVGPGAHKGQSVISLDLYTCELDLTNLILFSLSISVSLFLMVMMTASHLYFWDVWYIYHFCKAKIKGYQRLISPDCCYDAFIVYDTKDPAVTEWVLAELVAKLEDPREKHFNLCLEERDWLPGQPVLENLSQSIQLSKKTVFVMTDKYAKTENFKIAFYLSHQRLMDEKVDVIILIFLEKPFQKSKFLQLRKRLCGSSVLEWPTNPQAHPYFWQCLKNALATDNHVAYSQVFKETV
Assay: HEK293-Blue-hTLR-7 cells assay
Format: cell-based
Conditions: HEK293-Blue-hTLR7 cells, R848 stimulation, 20 hrs, SEAP reporter; read-out: HEK/hTLR7 IC50
Method in brief: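 HEK293-Blue-hTLR7 cells (NF-κB/AP-1-driven SEAP reporter) incubated with serially diluted compound (1% DMSO final) and R848 agonist for 20 h at 37 °C. Supernatant SEAP measured with QUANTI-Blue (2 h, 37 °C) by absorbance at 620-655 nm; antagonism seen as reduced reporter.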

IC50 | SMILES
< 3.2 nM | C[C@@H]1CN(c2ccc(C#N)c3ncccc23)C[C@@H]2c3ccc(N4CCNCC4)cc3CN12 [Example 1, 5-[(4R,10bS)-4-methyl-8-piperazin-1-yl-3,4,6,10b-tetrahydro-1H-pyrazino[2,1-a]isoindol-2-yl]quinoline-8-carbonitrile]
71.5 nM | C[C@H]1CN(c2ccc(C#N)c3ncccc23)C[C@H]2c3ccc(N4CCNCC4)cc3CN12 [Example 2, 5-[(4S,10bR)-4-methyl-8-piperazin-1-yl-3,4,6,10b-tetrahydro-1H-pyrazino[2,1-a]isoindol-2-yl]quinoline-8-carbonitrile]
42.6 nM | N#Cc1ccc(N2CCN3Cc4cc(N5CCNCC5)ccc4C3C2)c2cccnc12 (centres unmarked) [Example 3, 5-(8-piperazin-1-yl-3,4,6,10b-tetrahydro-1H-pyrazino[2,1-a]isoindol-2-yl)quinoline-8-carbonitrile]
11.1 nM | C[C@@H]1CN(c2ccc(C#N)c3ncccc23)C[C@@H]2c3ccc(N[C@@H]4CNCCOC4)cc3CN12 [Example 56A, 5-[(4R,10bS)-4-methyl-8-[[(6R)-1,4-oxazepan-6-yl]amino]-3,4,6,10b-tetrahydro-1H-pyrazino[2,1-a]isoindol-2-yl]quinoline-8-carbonitrile]
4.5 nM | C[C@@H]1CN(c2ccc(C#N)c3ncccc23)C[C@@H]2c3ccc(N[C@H]4CNCCOC4)cc3CN12 [Example 56B, 5-[(4R,10bS)-4-methyl-8-[[(6S)-1,4-oxazepan-6-yl]amino]-3,4,6,10b-tetrahydro-1H-pyrazino[2,1-a]isoindol-2-yl]quinoline-8-carbonitrile]
11.1 nM | C[C@@H]1CN(c2ccc(C#N)c3ncccc23)C[C@@H]2c3ccc(NCC4COCCN4)cc3CN12 (stereo partly drawn) [Example 57, 5-[(4R,10bS)-4-methyl-8-(morpholin-3-ylmethylamino)-3,4,6,10b-tetrahydro-1H-pyrazino[2,1-a]isoindol-2-yl]quinoline-8-carbonitrile]
< 3.2 nM | C[C@@H]1CN(c2ccc(C#N)c3ncccc23)C[C@@H]2c3ccc(NC[C@@H]4CNCCO4)cc3CN12 [Example 58, 5-[(4R,10bS)-4-methyl-8-[[(2S)-morpholin-2-yl]methylamino]-3,4,6,10b-tetrahydro-1H-pyrazino[2,1-a]isoindol-2-yl]quinoline-8-carbonitrile]
< 3.2 nM | C[C@@H]1CN(c2ccc(C#N)c3ncccc23)C[C@@H]2c3ccc(NC[C@H]4CNCCO4)cc3CN12 [Example 59, 5-[(4R,10bS)-4-methyl-8-[[(2R)-morpholin-2-yl]methylamino]-3,4,6,10b-tetrahydro-1H-pyrazino[2,1-a]isoindol-2-yl]quinoline-8-carbonitrile]
3.2 nM | CO[C@@H]1CNC[C@@H]1Nc1ccc2c(c1)CN1[C@H](C)CN(c3ccc(C#N)c4ncccc34)C[C@H]21 [Example 60, 5-[(4R,10bS)-8-[[(3S,4R)-4-methoxypyrrolidin-3-yl]amino]-4-methyl-3,4,6,10b-tetrahydro-1H-pyrazino[2,1-a]isoindol-2-yl]quinoline-8-carbonitrile]
5.7 nM | CO[C@H]1CNC[C@H]1Nc1ccc2c(c1)CN1[C@H](C)CN(c3ccc(C#N)c4ncccc34)C[C@H]21 [Example 61, 5-[(4R,10bS)-8-[[(3R,4S)-4-methoxypyrrolidin-3-yl]amino]-4-methyl-3,4,6,10b-tetrahydro-1H-pyrazino[2,1-a]isoindol-2-yl]quinoline-8-carbonitrile]
5.9 nM | CO[C@H]1CNC[C@@H]1Nc1ccc2c(c1)CN1[C@H](C)CN(c3ccc(C#N)c4ncccc34)C[C@H]21 [Example 62, 5-[(4R,10bS)-8-[[(3S,4S)-4-methoxypyrrolidin-3-yl]amino]-4-methyl-3,4,6,10b-tetrahydro-1H-pyrazino[2,1-a]isoindol-2-yl]quinoline-8-carbonitrile]
7.3 nM | CO[C@@H]1CNC[C@H]1Nc1cc2c(cc1C)[C@H]1CN(c3ccc(C#N)c4ncccc34)C[C@@H](C)N1C2 [Example 63, 5-[(4R,10bS)-8-[[(3R,4R)-4-methoxypyrrolidin-3-yl]amino]-4,9-dimethyl-3,4,6,10b-tetrahydro-1H-pyrazino[2,1-a]isoindol-2-yl]quinoline-8-carbonitrile]
< 3.2 nM | CO[C@H]1CNC[C@@H]1N(C)c1ccc2c(c1)CN1[C@H](C)CN(c3ccc(C#N)c4ncccc34)C[C@H]21 [Example 64, 5-[(4R,10bS)-8-[[(3S,4S)-4-methoxypyrrolidin-3-yl]-methyl-amino]-4-methyl-3,4,6,10b-tetrahydro-1H-pyrazino[2,1-a]isoindol-2-yl]quinoline-8-carbonitrile]
4.4 nM | C[C@@H]1CN(c2ccc(C#N)c3ncccc23)C[C@@H]2c3ccc(N[C@@H]4CCCNC4)cc3CN12 [Example 65, 5-[(4R,10bS)-4-methyl-8-[[(3R)-3-piperidyl]amino]-3,4,6,10b-tetrahydro-1H-pyrazino[2,1-a]isoindol-2-yl]quinoline-8-carbonitrile]
< 3.2 nM | CO[C@H]1CNCC[C@H]1Nc1ccc2c(c1)CN1[C@H](C)CN(c3ccc(C#N)c4ncccc34)C[C@H]21 [Example 66, 5-[(4R,10bS)-8-[[(3S,4R)-3-methoxy-4-piperidyl]amino]-4-methyl-3,4,6,10b-tetrahydro-1H-pyrazino[2,1-a]isoindol-2-yl]quinoline-8-carbonitrile]
3.3 nM | C[C@@H]1CN(c2ccc(C#N)c3ncccc23)C[C@@H]2c3ccc(NCCN4CC[C@H](O)C4)cc3CN12 [Example 68, 5-[(4R,10bS)-8-[2-[(3S)-3-hydroxypyrrolidin-1-yl]ethylamino]-4-methyl-3,4,6,10b-tetrahydro-1H-pyrazino[2,1-a]isoindol-2-yl]quinoline-8-carbonitrile]
18.2 nM | C[C@@H]1CN(c2ccc(C#N)c3ncccc23)C[C@@H]2c3ccc(NCC4(F)CNC4)cc3CN12 [Example 69, 5-[(4R,10bS)-8-[(3-fluoroazetidin-3-yl)methylamino]-4-methyl-3,4,6,10b-tetrahydro-1H-pyrazino[2,1-a]isoindol-2-yl]quinoline-8-carbonitrile]
9 nM | C[C@@H]1CN(c2ccc(C#N)c3ncccc23)C[C@@H]2c3ccc(NC[C@@H]4C[C@H](F)CN4)cc3CN12 [Example 70, 5-[(4R,10bS)-8-[[(2S,4S)-4-fluoropyrrolidin-2-yl]methylamino]-4-methyl-3,4,6,10b-tetrahydro-1H-pyrazino[2,1-a]isoindol-2-yl]quinoline-8-carbonitrile]
< 3.2 nM | C[C@@H]1CN(c2ccc(C#N)c3ncccc23)C[C@@H]2c3ccc(N4C[C@@H]5CNCCN5C4=O)cc3CN12 [Example 71, 5-[(4R,10bS)-8-[(8aS)-3-oxo-1,5,6,7,8,8a-hexahydroimidazo[1,5-a]pyrazin-2-yl]-4-methyl-3,4,6,10b-tetrahydro-1H-pyrazino[2,1-a]isoindol-2-yl]quinoline-8-carbonitrile]
< 3.2 nM | C[C@@H]1CN(c2ccc(C#N)c3ncccc23)C[C@@H]2c3ccc(N4C[C@H]5CNCCN5C4=O)cc3CN12 [Example 72, 5-[(4R,10bS)-8-[(8aR)-3-oxo-1,5,6,7,8,8a-hexahydroimidazo[1,5-a]pyrazin-2-yl]-4-methyl-3,4,6,10b-tetrahydro-1H-pyrazino[2,1-a]isoindol-2-yl]quinoline-8-carbonitrile]
3.9 nM | C[C@@H]1CN(c2ccc(C#N)c3ncccc23)C[C@@H]2c3ccc(OC[C@@H]4C[C@H](F)CN4)cc3CN12 [Example 74, 5-[(4R,10bS)-8-[[(2S,4S)-4-fluoropyrrolidin-2-yl]methoxy]-4-methyl-3,4,6,10b-tetrahydro-1H-pyrazino[2,1-a]isoindol-2-yl]quinoline-8-carbonitrile]
47.8 nM | Cc1ccc(N2C[C@@H](C)N3Cc4cc(N[C@H]5CNC[C@H]5F)ccc4[C@H]3C2)c2cccnc12 [Example 75, (4R,10bS)—N-[(3S,4R)-4-fluoropyrrolidin-3-yl]-4-methyl-2-(8-methyl-5-quinolyl)-3,4,6,10b-tetrahydro-1H-pyrazino[2,1-a]isoindol-8-amine]
22.8 nM | Cc1ccc(N2C[C@@H](C)N3Cc4cc(N[C@H]5CNC[C@H]5F)ccc4[C@H]3C2)c2nccnc12 [Example 76, (4R,10bS)—N-[(3S,4R)-4-fluoropyrrolidin-3-yl]-4-methyl-2-(8-methylquinoxalin-5-yl)-3,4,6,10b-tetrahydro-1H-pyrazino[2,1-a]isoindol-8-amine]
